{
  "source": "patent US8530183B2",
  "about": "“Zinc sensors for cellular imaging” (The Board of Regents of the University of Texas System, priority 2010, dated 2013)",
  "key": {"MIN6 cells": {"test_system": "MIN6 cells", "test": "Epifluorescence ZIMIR imaging of KCl-stimulated insulin/Zn2+ release", "format": "cell-based, mouse", "settings": "KCl 40 mM", "procedure": "FIGS. 6A-E. ZIMIR imaging of insulin/Zn^2+ release. (FIGS. 6A-E) KCl stimulated insulin/Zn^2+ release in MIN6 cells. Example images of MIN6 cells (FIG. 6A, DIC/Normasky) before (FIG. 6B) and after KCl (40 mM, C) or Zn^2+ addition (1 μM, D). Time courses of ZIMIR signal changes (F/F0) in two example regions of interest (ROI, indicated in D by dashed lines) along the plasma membrane.\nCell culture and ZIMIR imaging by wide field fluorescence microscopy. Details of cell culture are described below. For cell imaging, we cultured cells in 35 mm petri dishes with glass-bottoms (MatTek, Ashland, Mass.). […] To image insulin/Zn^2+ secretion, we routinely included 10 μM of EDTA in SAB to chelate the residual Zn^2+ and to reduce the baseline fluorescence. […]\nMembrane ZIMIR fluorescence intensity was measured by drawing regions of interest (ROIs) along the plasma membrane, and its time course was normalized against its baseline value after background subtraction, i.e., (F-Fbkg)/(F0-Fbkg), where Fbkg is the average background fluorescence intensity of a nearby area containing no cells. […] Wide field fluorescence microscopy was carried out on inverted fluorescence microscopes as described (Guo et al., 2008).\nZIMIR imaging by wide field fluorescence microscopy. […]"}, "INS-1 cells": {"test_system": "INS-1 cells", "test": "Response of membrane-anchored ZIMIR to extracellular Zn2+ and decay upon Zn2+ washout", "format": "cell-based, rat", "procedure": "FIGS. 5A-B. Membrane anchored ZIMIR reports changes of [Zn^2+]e. (FIG. 5A) Example fluorescence images (Excitation 488±7.5 nm, emission 530±20 nm) of INS-1 cells labeled with ZIMIR at different [Zn^2+]e. (FIG. 5B) Quantification of the average ZIMIR fluorescence intensity along the plasma membrane (IZIMIR(PM)).\n(FIG. 7A) Time courses of IZIMIR(PM) decay after washing INS-1 cells (initially bathed in FIBS containing 1 μM Zn^2+) with HBS containing EDTA (10 μM) and DPAS (0-8 μM). (FIG. 7B) ZIMIR imaging of insulin/Zn^2+ release of MIN6 cells bathed in SAB containing EDTA (10 μM) and DPAS (4 μM). Time courses of IZIMIR(PM) fluctuation of four separate regions of interest (ROI 1-4) and example ZIMIR images at different time points were shown (a-e; arrow heads highlighting local ZIMIR increases in separate ROIs at different time).\nTo characterize the response of membrane anchored ZIMIR to changes of extracellular Zn^2+ concentration ([Zn^2+]), the inventors varied [Zn^2+]e from low nanomolar to micromolar, using Zn^2-1 buffers containing nitrilotriacetic acid (for [Zn^2+]e<100 nM) (Hirano et al., 2000) or histidine (for [Zn^2+]e. 100 nM) (Hauser and Tsien, 2007). After recording fluorescence images at different [Zn^2+]e levels, the inventors washed cells with a nominally Zn^2+ free SAB containing 0.2 mM DPAS and followed the decay of IZIMIR(PM).\nUpon membrane depolarization, ZIMIR signal increased immediately and reached a plateau before it gradually declined (FIGS. 6E-F). Unexpectedly, however, in some occasions, ZIMIR signal remained elevated even after the inventors lowered KCl concentration to the resting level (5 mM) (FIG. 9). […] In INS-1 beta cells labeled with ZIMIR, after recording ZIMIR fluorescence in solutions containing ˜1 μM of Zn2+, the inventors perifused cells with a nominally Zn^2+-free solution containing only EDTA (10 μM), or with both EDTA (10 μM) and different concentrations of DPAS."}},
  "data": [
    {"smiles": "CCCCCCCCCCCCN(CC(=O)O)Cc1c2oc3c(CN(CCCCCCCCCCCC)CC(=O)O)c(O)ccc3c(-c3cc(NCCN(CCc4ccccn4)Cc4ccccn4)ccc3C(=O)O)c-2ccc1=O", "note": "[ZIMIR]", "values": [
      {"measurement": "ZIMIR fluorescence change upon KCl stimulation", "setting": "MIN6 cells", "value": "robust enhancement in ZIMIR fluorescence"},
      {"measurement": "decaying half lifetime of membrane ZIMIR signal upon Zn^2+ washout", "setting": "INS-1 cells; INS-1 cells, EDTA 10 μM only, absence of DPAS", "value": 2.723, "unit": "min"},
      {"measurement": "ZIMIR fluorescence along the plasma membrane (IZIMIR(PM)) versus [Zn^2+]e", "setting": "INS-1 cells; [Zn^2+]e varied from nanomolar to micromolar", "value": "stepwise increase with incremental level of [Zn^2+]e"}
    ]}
  ]
}
